The values below come from patent US8329390B2, “Detection of transmembrane potentials using N,N,N′-trialkyl thiobarbituric acid-derived polymethine oxonols” (priority 2004, dated 2012).

The nature of this data set: Absorption and fluorescence spectral properties. The class given is physicochemical. The text has this: For all the syntheses, all starting materials and reagents were of the highest purity available (Aldrich Chemical Company, Milwaukee, Wis.) and used without further purification, except where noted. Solvents were HPLC grade (Fisher Scientific, Pittsburgh, Pa.) and were dried over activated molecular sieves. NMR spectra were acquired on a Varian Gemini 200 MHz spectrometer. Absorption and fluorescence spectra were taken respectively on a Cary 50 BIO and Varain Eclipse (Varian, Inc., Palo Alto, Calif.).

`CN1C(=O)C(=C/C=C/c2c(O)[nH]c(=S)n(C)c2=O)C(=O)N(C)C1=S` [Compound 4] returned an absorption maximum of 532 nm and an emission maximum of 555 nm. In addition, the ext. coefficient (at 532 nm) was 175,000 M^−1 cm^−1. The same molecule showed a quantum yield (in octanol) greater than 0.2.
